Laboratory results reported in patent US4241053A, “Novel nitrosourea compounds and process for preparing the same” (Tanabe Seiyaku Co., Ltd., priority 1978, dated 1980).

How the values were obtained:
[1] = Preventive effect against the growth of Ehrlich ascites tumor (Method A); type: in vivo, mice (female ICR); settings: mouse, in vivo, ip; maximum dose with 100% inhibition of Ehrlich ascites tumor without causing death; unit from dose column; read-out: MTD (Maximum Tolerated Dose)
Protocol: (§1) (A) Preventive effect against the growth of Ehrlich ascites tumor:
(§2) 10^6 tumor cells of Ehrlich ascites carcinoma were inoculated intraperitoneally into a group of five femal mice (ICR mice, body weight: 19-23 g). A test compound was dissolved in a physiological saline solution [In the case where CCNU was employed as the test compound, said compound was suspended in a physiological saline solution containing 0.1% NIKKOL HCO-60 (trademark; a surface active agent manufactured by Nikko Chemicals Co. Ltd.)] and administered intraperioneally to the mice. The administration of the test compound was begun 24 hours after the inoculation of the tumor cells and performed once a day for 5 days. The volume of ascites in the treated mice were measured after 7 days of the experiment.
(§3) ^a T = the average volume of ascites in the treated mice
(§4) C = the average volume of ascites in the untreated mice (control group of
(§5) 100% inhibition for the growth of Ehrlich ascites tumor in mice without
(§6) causing the death of said mice)
(§7) 100% inhibition for the growth of said ascites tumor)
(§8) ^e Therapeutic index = MTD/MED
(§9) *the number of mice died/the number of mice used

[2] = test system: Ehrlich ascites carcinoma; test: as above; type: in vivo, mice (female ICR); settings: for Toxic (number of mice died/number of mice used) / inhibition in vivo at 0.09 mg/kg / inhibition in vivo at 0.19 mg/kg / inhibition in vivo at 0.39 mg/kg / inhibition in vivo at 0.78 mg/kg / inhibition in vivo at 3.12 mg/kg / inhibition in vivo at 12.5 mg/kg / inhibition in vivo at 50 mg/kg / inhibition in vivo at 1.56 mg/kg / inhibition in vivo at 6.25 mg/kg / inhibition in vivo at 25 mg/kg / inhibition in vivo at 100 mg/kg: once a day for 5 days; for therapeutic index (M.T.D./M.E.D.) relative to that of GANU: Ehrlich ascites tumor, greater than that of GANU; for inhibition in vivo at 0.09 mg/kg / inhibition in vivo at 0.19 mg/kg / inhibition in vivo at 0.39 mg/kg / inhibition in vivo at 0.78 mg/kg / inhibition in vivo at 3.12 mg/kg / inhibition in vivo at 12.5 mg/kg / inhibition in vivo at 50 mg/kg / minimal effective dose / inhibition in vivo at 1.56 mg/kg / inhibition in vivo at 6.25 mg/kg / inhibition in vivo at 25 mg/kg / inhibition in vivo at 100 mg/kg: Mus musculus, Ehrlich, ip, 168 h; for inhibition in vivo at 0.09 mg/kg: 0.09 mg/kg/day i.p.; for inhibition in vivo at 0.09 mg/kg / inhibition in vivo at 0.19 mg/kg / inhibition in vivo at 0.39 mg/kg / inhibition in vivo at 0.78 mg/kg / inhibition in vivo at 3.12 mg/kg / inhibition in vivo at 12.5 mg/kg / inhibition in vivo at 50 mg/kg / inhibition in vivo at 1.56 mg/kg / inhibition in vivo at 6.25 mg/kg / inhibition in vivo at 25 mg/kg / inhibition in vivo at 100 mg/kg: read-out: Inhibition ratio; for inhibition in vivo at 0.19 mg/kg: 0.19 mg/kg/day i.p.; for inhibition in vivo at 0.39 mg/kg: 0.39 mg/kg/day i.p.; for inhibition in vivo at 0.78 mg/kg: 0.78 mg/kg/day i.p.; for inhibition in vivo at 3.12 mg/kg: 3.12 mg/kg/day i.p.; for inhibition in vivo at 12.5 mg/kg: 12.5 mg/kg/day i.p.; for inhibition in vivo at 50 mg/kg: 50 mg/kg/day i.p.; for minimal effective dose: minimum dose with 100% inhibition of ascites tumor, unit from dose column, read-out: MED (Minimum Effective Dose); for inhibition in vivo at 1.56 mg/kg: 1.56 mg/kg/day i.p.; for inhibition in vivo at 6.25 mg/kg: 6.25 mg/kg/day i.p.; for inhibition in vivo at 25 mg/kg: 25 mg/kg/day i.p.
Protocol: as §1, §2, §3, §4, §5, §6, §7, §8, §9

Leukemia L-1210 = test: Effect on the life span of mice implanted with leukemic cells of L-1210 (Method B); type: in vivo, mice (male BDF1); settings: for ILS at 6.25 mg/kg / responders at 6.25 mg/kg: 6.25 mg/kg/day i.p.; for ILS at 12.5 mg/kg / responders at 12.5 mg/kg: 12.5 mg/kg/day i.p.; for ILS at 25 mg/kg / responders at 25 mg/kg: 25 mg/kg/day i.p.; for ILS at 50 mg/kg / responders at 50 mg/kg: 50 mg/kg/day i.p.; for responders at 6.25 mg/kg / responders at 12.5 mg/kg / responders at 25 mg/kg / responders at 50 mg/kg: read-out: 60-day survivors (mice survived for 60 days/mice used) (converted); for increase in the average life span: five consecutive days
Protocol: (B) Effect on the life span of mice implanted with leukemic cells of L-1210:
10^5 leukemic cells of L-1210 were inoculated intraperitoneally into a group of four or six male mice (BDF1 mice, body weight: 19-23 g). A test compound was dissolved in a physiological saline solution and administered intraperitoneally to the mice. The administration of the test compound was begun 24 hours after the inoculation of the leukemic cells and performed once a day for 5 days. The survival days of the treated mice were observed.
^a T = the mean survival days of the treated mice
C = the mean survival days of the untreated mice (control group of mice)
^b ILS(Increase in Life Span) =-
^c 60day survivors = the number of mice survived for 60 days/the

[3] = Mus musculus, L1210, ip, 120 h, once a day for 5 days, read-out: ILS (Increase in Life Span)
[4] = Mus musculus, L1210, ip, 1440 h, once a day for 5 days

COCCCN(C(=O)N(CCCl)N=O)C1OC[C@H](O)[C@H](O)[C@H]1O (stereo partly drawn) [Compound 4, 1-(2-chloroethyl)-1-nitroso-3-(3-methoxy-n-propyl)-3-(L-arabinopyranosyl)urea]
MTD at 168 h [1]: 50 mg/kg/day | Toxic (number of mice died/number of mice used) ([2]; 100 mg/kg/day i.p.): 2/5 | therapeutic index (M.T.D./M.E.D.) relative to that of GANU [2]: 4 times | Therapeutic index (MTD/MED) [2]: 128 | inhibition in vivo at 0.09 mg/kg [2]: 18.4% | inhibition in vivo at 0.19 mg/kg [2]: 44.9% | inhibition in vivo at 0.39 mg/kg [2]: 100% | inhibition in vivo at 0.78 mg/kg [2]: 100% | inhibition in vivo at 3.12 mg/kg [2]: 100% | inhibition in vivo at 12.5 mg/kg [2]: 100% | inhibition in vivo at 50 mg/kg [2]: 100% | minimal effective dose [2]: 0.39 mg/kg/day | ILS at 6.25 mg/kg (Leukemia L-1210; [3]): 97.2% | ILS at 12.5 mg/kg (Leukemia L-1210; [3]): > 324% | ILS at 25 mg/kg (Leukemia L-1210; [3]): > 733% | ILS at 50 mg/kg (Leukemia L-1210; [3]): > 733% | responders at 6.25 mg/kg (Leukemia L-1210; [4]): 0% | responders at 12.5 mg/kg (Leukemia L-1210; [4]): 33.3% | responders at 25 mg/kg (Leukemia L-1210; [4]): 100% | responders at 50 mg/kg (Leukemia L-1210; [4]): 100%

COC(C)CN(C(=O)N(CCCl)N=O)C1OC[C@H](O)[C@H](O)[C@H]1O (stereo partly drawn) [Compound 5, 1-(2-chloroethyl)-1-nitroso-3-(2-methoxy-n-propyl)-3-(L-arabinopyranosyl)urea]
MTD at 168 h [1]: 50 mg/kg/day | Toxic (number of mice died/number of mice used) ([2]; 100 mg/kg/day i.p.): 4/5 | Therapeutic index (MTD/MED) [2]: 128 | inhibition in vivo at 0.09 mg/kg [2]: 8.2% | inhibition in vivo at 0.19 mg/kg [2]: 36.7% | inhibition in vivo at 0.39 mg/kg [2]: 100% | inhibition in vivo at 0.78 mg/kg [2]: 100% | inhibition in vivo at 3.12 mg/kg [2]: 100% | inhibition in vivo at 12.5 mg/kg [2]: 100% | inhibition in vivo at 50 mg/kg [2]: 100% | minimal effective dose [2]: 0.39 mg/kg/day | ILS at 6.25 mg/kg (Leukemia L-1210; [3]): 91.7% | ILS at 12.5 mg/kg (Leukemia L-1210; [3]): > 529% | ILS at 25 mg/kg (Leukemia L-1210; [3]): > 733% | ILS at 50 mg/kg (Leukemia L-1210; [3]): > 678% | responders at 6.25 mg/kg (Leukemia L-1210; [4]): 0% | responders at 12.5 mg/kg (Leukemia L-1210; [4]): 75% | responders at 25 mg/kg (Leukemia L-1210; [4]): 100% | responders at 50 mg/kg (Leukemia L-1210; [4]): 75% | increase in the average life span (Leukemia L-1210; daily dose 0.5 mg/kg i.p.): about 30%

COCC(C)N(C(=O)N(CCCl)N=O)C1OC[C@H](O)[C@H](O)[C@H]1O (stereo partly drawn) [Compound 6, 1-(2-chloroethyl)-1-nitroso-3-(1-methyl-2-methoxy-ethyl)-3-(L-arabinopyranosyl)urea]
MTD at 168 h [1]: 50 mg/kg/day | Toxic (number of mice died/number of mice used) ([2]; 100 mg/kg/day i.p.): 5/5 | Therapeutic index (MTD/MED) [2]: 64 | inhibition in vivo at 0.09 mg/kg [2]: 15.8% | inhibition in vivo at 0.19 mg/kg [2]: 63.2% | inhibition in vivo at 0.39 mg/kg [2]: 92.1% | inhibition in vivo at 0.78 mg/kg [2]: 100% | inhibition in vivo at 3.12 mg/kg [2]: 100% | inhibition in vivo at 12.5 mg/kg [2]: 100% | inhibition in vivo at 50 mg/kg [2]: 100% | minimal effective dose [2]: 0.78 mg/kg/day | ILS at 1.56 mg/kg (Leukemia L-1210; Mus musculus, L1210, ip, 120 h, 1.56 mg/kg/day i.p., once a day for 5 days, read-out: ILS (Increase in Life Span)): 57.5% | ILS at 6.25 mg/kg (Leukemia L-1210; [3]): > 270% | ILS at 12.5 mg/kg (Leukemia L-1210; [3]): > 722% | ILS at 25 mg/kg (Leukemia L-1210; [3]): > 722% | responders at 1.56 mg/kg (Leukemia L-1210; Mus musculus, L1210, ip, 1440 h, 1.56 mg/kg/day i.p., once a day for 5 days, read-out: 60-day survivors (mice survived for 60 days/mice used)): 0% | responders at 12.5 mg/kg (Leukemia L-1210; [4]): 100% | responders at 25 mg/kg (Leukemia L-1210; [4]): 100% | increase in the average life span (Leukemia L-1210; daily dose 0.45 mg/kg i.p.): about 30%

COCCCN(C(=O)N(CCCl)N=O)C1OC[C@@H](O)[C@@H](O)[C@@H]1O (stereo partly drawn) [Compound 7, 1-(2-chloroethyl)-1-nitroso-3-(3-methoxy-n-propyl)-3-(D-arabinopyranosyl)urea]
MTD at 168 h [1]: 100 mg/kg/day | Toxic (number of mice died/number of mice used) ([2]; 200 mg/kg/day i.p.): 5/5 | therapeutic index (M.T.D./M.E.D.) relative to that of GANU [2]: 4 times | Therapeutic index (MTD/MED) [2]: 128 | inhibition in vivo at 0.19 mg/kg [2]: 23.2% | inhibition in vivo at 0.39 mg/kg [2]: 73.2% | inhibition in vivo at 0.78 mg/kg [2]: 100% | inhibition in vivo at 1.56 mg/kg [2]: 100% | inhibition in vivo at 6.25 mg/kg [2]: 100% | inhibition in vivo at 25 mg/kg [2]: 100% | inhibition in vivo at 100 mg/kg ([2]; 100 mg/kg/day i.p.): 100% | minimal effective dose [2]: 0.78 mg/kg/day | ILS at 3.12 mg/kg (Leukemia L-1210; Mus musculus, L1210, ip, 120 h, 3.12 mg/kg/day i.p., once a day for 5 days, read-out: ILS (Increase in Life Span)): 66.7% | ILS at 12.5 mg/kg (Leukemia L-1210; [3]): > 215% | ILS at 25 mg/kg (Leukemia L-1210; [3]): > 641% | ILS at 50 mg/kg (Leukemia L-1210; [3]): > 641% | responders at 3.12 mg/kg (Leukemia L-1210; Mus musculus, L1210, ip, 1440 h, 3.12 mg/kg/day i.p., once a day for 5 days, read-out: 60-day survivors (mice survived for 60 days/mice used)): 0% | responders at 12.5 mg/kg (Leukemia L-1210; [4]): 25% | responders at 25 mg/kg (Leukemia L-1210; [4]): 100% | responders at 50 mg/kg (Leukemia L-1210; [4]): 100%

COCC(C)N(C(=O)N(CCCl)N=O)C1O[C@H](CO)[C@H](O)[C@H](O)[C@H]1O (stereo partly drawn) [Compound 8, 1-(2-chloroethyl)-1-nitroso-3-(1-methyl-2-methoxy-ethyl)-3-(D-galactopyranosyl)urea]
MTD at 168 h [1]: 100 mg/kg/day | Toxic (number of mice died/number of mice used) ([2]; 200 mg/kg/day i.p.): 5/5 | Therapeutic index (MTD/MED) [2]: 64 | inhibition in vivo at 0.39 mg/kg [2]: 18.4% | inhibition in vivo at 0.78 mg/kg [2]: 65.8% | inhibition in vivo at 1.56 mg/kg [2]: 100% | inhibition in vivo at 6.25 mg/kg [2]: 100% | inhibition in vivo at 25 mg/kg [2]: 100% | inhibition in vivo at 100 mg/kg ([2]; 100 mg/kg/day i.p.): 100% | minimal effective dose [2]: 1.56 mg/kg/day | ILS at 12.5 mg/kg (Leukemia L-1210; [3]): 158% | ILS at 25 mg/kg (Leukemia L-1210; [3]): > 496% | ILS at 50 mg/kg (Leukemia L-1210; [3]): > 722% | responders at 12.5 mg/kg (Leukemia L-1210; [4]): 0% | responders at 25 mg/kg (Leukemia L-1210; [4]): 50% | responders at 50 mg/kg (Leukemia L-1210; [4]): 100%
